From patent publication US20250109118A1, “HETEROCYCLIC COMPOUNDS AS SHP2 INHIBITORS, COMPOSITIONS COMPRISING THE HETEROCYCLIC COMPOUND, AND METHODS OF USE THEREOF” (JS INNOMED HOLDINGS LTD., priority 2021, published 2025)

Tested on: MiaPaCa-2 cells
Assay: MiaPaCa-2 Cell proliferation assay in 3D culture (CCK8)
Type: cell-based
Details: Homo sapiens, MIA PaCa-2, 120 h; 3D spheroid culture, 5 days with compound, CCK8 readout
Experimental: MiaPaCa-2 Cell proliferation assay in 3D culture. To evaluate cell viability, MiaPaCa-2 cells in logarithmic growth phase were seeded at optimal density and grown in as spheroids. Cells were incubated for 24 hours prior to the addition of different concentrations of the compounds. Cells were cultured with the compounds for 5 days and the cell viability was assessed using CCK8. Briefly, 2500 cells were seeded in round bottom ultra-low attachment 96 well plates (coming) in growth media supplemented with 10% FBS and incubated at 37° C. for 24 hours. The compounds were dissolved in DMSO (Sigma) to obtain 10 mM stock solution. Then the compounds were serially diluted in 3-fold to ten concentrations; 5 μL of the dilution above was transferred to 95 uL culture media to obtain the 50× compound stock solution; 4 uL of the 50× compound above was then transferred to the wells containing cells with 196 μL of the culture medium to obtain the final 1× concentration. The final concentration of DMSO was 0.1%. Spheroid cells were incubated in compounds for 5 days. Then 20 μL WST-8 solution (DOJINDO, Cell Counting KIT-8) was added to each well. The plates were further incubated at 37° C. for 1.5 hours, and then absorbance at 450 nm was measured using a microplate reader. Each compound was tested in triplicate and the IC50 value was calculated using GraphPad Prism.
The IC50 values of for Compounds disclosed are listed in Table 2, A: ≤500 nM; B: >500 nM and ≤5 μM; C: >5 μM and ≤50 μM; and D: >50 μM.

Row | SMILES | IC50
1 | C[C@@H]1OCC2(CCN(c3cnc(Sc4ccnc(NC(=O)NS(=O)(=O)c5ccccc5)c4Cl)cn3)CC2)[C@@H]1N [Example 6, N-((4-((5-((3S,4S)-4-amino-3-methyl-2-oxa-8-azaspiro[4.5]decan-8-yl)pyrazin-2-yl)thio)-3-chloropyridin-2-yl)carbamoyl)benzenesulfonamide] | ≤ 0.5 µM
2 | Cc1nc(N2CCC(C)(CN)CC2)c(CO)nc1Sc1ccnc(NC(=O)NS(=O)(=O)c2ccccc2)c1Cl [Example 9, N-((4-((5-(4-(aminomethyl)-4-methylpiperidin-1-yl)-6-(hydroxymethyl)-3-methylpyrazin-2-yl)thio)-3-chloropyridin-2-yl)carbamoyl)benzenesulfonamide] | ≤ 0.5 µM
3 | C[C@@H]1OCC2(CCN(c3cnc(Sc4cccc(NC(=O)NS(=O)(=O)c5ccccc5F)c4Cl)cn3)CC2)[C@@H]1N [Example 10, N-((3-((5-((3S,4S)-4-amino-3-methyl-2-oxa-8-azaspiro[4.5]decan-8-yl)pyrazin-2-yl)thio)-2-chlorophenyl)carbamoyl)-2-fluorobenzenesulfonamide] | ≤ 0.5 µM
4 | Cc1nc(N2CCC3(CC2)CO[C@@H](C)[C@H]3N)c(CO)nc1Sc1cccc(NC(=O)NS(=O)(=O)c2ccccc2)c1Cl [Example 11, N-((3-((5-((3S,4S)-4-amino-3-methyl-2-oxa-8-azaspiro[4.5]decan-8-yl)-6-(hydroxymethyl)-3-methylpyrazin-2-yl)thio)-2-chlorophenyl)carbamoyl)benzenesulfonamide] | ≤ 0.5 µM
5 | C[C@@H]1OCC2(CCN(c3cnc(Sc4cccc(NS(=O)(=O)NC(=O)Nc5ccccc5)c4Cl)cn3)CC2)[C@@H]1N [Example 12, ((3S,4S)-8-(5-((2-chloro-3-((N-(phenylcarbamoyl)sulfamoyl)amino)phenyl)thio)pyrazin-2-yl)-3-methyl-2-oxa-8-azaspiro[4.5]decan-4-yl)amine] | ≤ 0.5 µM
6 | C[C@@H]1OCC2(CCN(c3cnc(Sc4cccc(NC(=O)NS(=O)(=O)N5CCCC5)c4Cl)cn3)CC2)[C@@H]1N [Example 13, N-((3-((5-((3S,4S)-4-amino-3-methyl-2-oxa-8-azaspiro[4.5]decan-8-yl)pyrazin-2-yl)thio)-2-chlorophenyl)carbamoyl)pyrrolidine-1-sulfonamide] | ≤ 0.5 µM
7 | N[C@@H]1c2ncccc2CC12CCN(c1cnc(Sc3ccnc(NC(=O)NS(=O)(=O)c4ccccc4)c3Cl)cn1)CC2 [Example 14, (S)—N-((4-((5-(7-amino-5,7-dihydrospiro[cyclopenta[b]pyridine-6,4′-piperidin]-1′-yl)pyrazin-2-yl)thio)-3-chloropyridin-2-yl)carbamoyl)benzenesulfonamide] | 0.5 to 5 µM
8 | C[C@@H]1OCC2(CCN(c3ncc(Sc4ccnc(NC(=O)NS(=O)(=O)c5ccccc5)c4Cl)c4nncn34)CC2)[C@@H]1N [Example 15, N-((4-((5-((3S,4S)-4-amino-3-methyl-2-oxa-8-azaspiro[4.5]decan-8-yl)[1,2,4]triazolo[4,3-c]pyrimidin-8-yl)thio)-3-chloropyridin-2-yl)carbamoyl)benzenesulfonamide] | 0.5 to 5 µM
9 | C[C@@H]1OCC2(CCN(c3cnc(Sc4cccc(NS(=O)(=O)NC(=O)N5CCCC5)c4Cl)cn3)CC2)[C@@H]1N [Example 16, N—(N-(3-((5-((3S,4S)-4-amino-3-methyl-2-oxa-8-azaspiro[4.5]decan-8-yl)pyrazin-2-yl)thio)-2-chlorophenyl)sulfamoyl)pyrrolidine-1-carboxamide] | ≤ 0.5 µM
10 | C[C@@H]1OCC2(CCN(c3cnc(Sc4cccc(S(=O)(=O)NC(=O)NC5CCCC5)c4Cl)cn3)CC2)[C@@H]1N [Example 17, 3-((5-((3S,4S)-4-amino-3-methyl-2-oxa-8-azaspiro[4.5]decan-8-yl)pyrazin-2-yl)thio)-2-chloro-N-(cyclopentylcarbamoyl)benzenesulfonamide] | ≤ 0.5 µM
11 | CC1(CN)CCN(c2cnc(Sc3cccc(C(=O)NS(=O)(=O)C4CCCC4)c3Cl)c(N)n2)CC1 [Example 44, 3-((3-amino-5-(4-(aminomethyl)-4-methylpiperidin-1-yl)pyrazin-2-yl)thio)-2-chloro-N-(cyclopentylsulfonyl)benzamide] | ≤ 0.5 µM
